Assay results published in US20110039825A1, “LIGANDS OF ALPHA-ADRENOCEPTORS, DOPAMINE, HISTAMINE, IMIDAZOLINE AND SEROTONIN RECEPTORS AND THEIR USE” (Alla Chem, LLC, priority 2007, published 2011).
pIC50, pKi: −log10 of the molar value.

How the values were obtained:
[1] = target: T1, recombinant human 5-HT2B receptor (Homo sapiens, UniProt P41595); assay: radioligand binding to serotonin receptor 5-HT2B ([3H] Lysergic acid diethylamide)
T1 construct: expressed in transfected cells; host or cells: CHO-K1
T1 sequence (P41595 whole entry): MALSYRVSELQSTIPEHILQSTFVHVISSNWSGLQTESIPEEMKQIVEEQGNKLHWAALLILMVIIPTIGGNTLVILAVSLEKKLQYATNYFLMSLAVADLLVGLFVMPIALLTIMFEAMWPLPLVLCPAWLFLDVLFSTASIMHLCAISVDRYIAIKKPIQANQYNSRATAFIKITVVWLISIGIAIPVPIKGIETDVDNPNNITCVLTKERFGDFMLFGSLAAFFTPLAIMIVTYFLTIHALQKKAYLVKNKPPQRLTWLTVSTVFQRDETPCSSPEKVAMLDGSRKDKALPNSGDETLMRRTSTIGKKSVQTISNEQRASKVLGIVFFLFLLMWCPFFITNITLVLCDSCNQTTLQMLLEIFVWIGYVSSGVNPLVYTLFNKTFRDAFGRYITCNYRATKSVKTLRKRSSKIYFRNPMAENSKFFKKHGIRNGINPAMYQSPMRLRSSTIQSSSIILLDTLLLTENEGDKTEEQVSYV

human D4.2 receptor = target: T2, human D4.2 receptor (Homo sapiens, UniProt P21917, DEL265-296); assay: radioligand binding to dopamine receptor D4.2 ([3H] Spiperone); details: 10 μM ligand
T2 sequence (P21917 with tags, fused parts or gaps DEL265-296): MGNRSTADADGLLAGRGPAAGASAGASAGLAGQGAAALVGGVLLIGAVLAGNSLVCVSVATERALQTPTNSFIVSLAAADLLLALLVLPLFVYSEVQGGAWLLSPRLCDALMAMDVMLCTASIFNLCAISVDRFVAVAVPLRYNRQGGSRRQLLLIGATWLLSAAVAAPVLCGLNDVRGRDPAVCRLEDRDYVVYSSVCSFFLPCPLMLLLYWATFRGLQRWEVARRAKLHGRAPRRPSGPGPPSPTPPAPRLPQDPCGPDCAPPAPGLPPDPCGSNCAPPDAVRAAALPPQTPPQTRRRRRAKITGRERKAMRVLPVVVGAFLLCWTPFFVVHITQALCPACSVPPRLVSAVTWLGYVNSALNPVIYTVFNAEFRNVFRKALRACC
Protocol: Screening of the disclosed compounds for potential ability to interact with dopamine receptor D4.2 is carried out by method of radioligand binding. […] From the cells transfected in this way membrane species are prepared by homogenization of these cells in glass homogenizer with the subsequent separation of plasmatic membranes from cell nuclei, mitochondrias and cell wreckages by differential centrifugation. […] After incubation samples are filtered in vacuo on glass-microfiber filters G/F (Millipor, USA), filters are washed three times with cold solution of medium and radioactivity is measured by scintillation counter MicroBeta 340 (Perkin Elmer, USA). Nonspecific binding which makes up 10% of the overall binding is determined by incubation of membrane species with radioligand in the presence of 10 μM of Haloperidol.
Spiperone is used as positive control. Tested compounds' binding to the receptor is determined by their ability to displace radioligand and expressed in percent of displacement (% I). Values of % I are calculated according to the following equation:
wherein: TA—is overall radioactivity in the presence of radioligand only, CA—is radioactivity in the presence of radioligand and tested compound and NA—is radioactivity in the presence of radioligand and Haloperidol (10 μM).

mice = assay: Mice Training in Morris Water Maze (Scopolamine); assay type: in vivo; details: unitary introduction of active ingredient
Protocol: Mice Training in Morris Water Maze. A round pool which was filled with water at 20-22° C. was used. A round ceramic platform of 14 cm height was placed in the pool. Animals's behavior was registered with automated computer videosystem in combination with software package of movement analysis Any-maze (Stoelting Co., US). Before testing mice suitable for training were selected. That was done by placing the platform 1 cm above the water level and putting an animal on the platform for 20 seconds. Then the mouse was sunk into the water on the opposite side of the pool, allowed to find the platform and climbed it within 60 seconds, where it was left for additional 20 seconds. After that the mouse was repeatedly immersed into water on the opposite side of the pool and allowed to look for platform. If it failed in finding the platform within 60 seconds the experimentator helped it to find the platform and climb it. If the mice could not find the platform itself in two consecutive attempts it was excluded from experiment.
During the next two days the platform was placed 0.5 centimeter lower the water level. Every day the mice were given four attempts for finding the platform within 60 seconds. The time interval between the attempts was 20 seconds, during which the mice stayed on the platform. Every day before the first attempt mouse was placed on the platform for 20 seconds. The time needed for finding and climbing the platform was registered. The animals were sunk in water in 3 different places on the side of the pool opposite to platform. On each day of two-day testing 35-40 minutes before the beginning of training the mice were injected intraintestinally with physiological solution, Scopolamine or Scopolamine in combination with investigated compound. At least 8 animals were used in each group.
On the third day the platform was removed and each animal was placed one time in the pool for a period of 60 seconds. The time each mouse spent in the area where the platform had been located during the previous days was registered. This time interval was regarded as a measure of effectiveness of training fulfilled during the previous two days. The testing was carried out during the day time in isolated laboratory using “white noise” at level of about 70 decibel above the human hearing threshold.

SMILES | nH 5-HT2B [1] | Dopamine receptor D4.2, % inhibition (human D4.2 receptor) | pIC50 ([1]; read-out: IC50 5-HT2B) | pKi ([1]; read-out: Ki 5-HT2B) | memory disorders caused by Scopolamine in Morris water maze (mice)
CN1CCc2c(c3ccccc3n2Cc2ccccc2)C1 [1.9(1)•½NDSA, bis-(5-benzyl-2-methyl-2,3,4,5-tetrahydro-1H-pyrido[4,3-b]indole) naphtalene-1,5-disulfonate] | 0.552 | – | – | – | –
Cc1ccc2c(c1)[C@@H]1CN(C)CCC[C@@H]1N2CCc1ccc(C)nc1.Cl.Cl.Cl (relative stereo) [1.6.1(2)•3HCl] | – | −11% | – | – | –
Cc1ccc2c(c1)c1c(n2CCc2ccccn2)CCN(C)C1.Cl.Cl [1.1.2(2-3)•2HCl] | 0.913 | – | 5.99 | 6.19 | decreasing memory disorders coused by Scopalomine
Cc1ccc2c(c1)[C@H]1CN(C)CCC[C@@H]1N2CCc1cccnc1 [1.6.2(10)•3HCl] | – | 5% | – | – | –
